The source of these data is US11882828B2, “Mosquito vector control compositions, methods and products utilizing same” (priority 2015, dated 2024).

Series [1] deals with Aedes aegypti (Yellow fever mosquito). The series is described as follows: whole plant or invertebrate. The following applies: for pest or weed control at 20 ppm / mortality at 20 ppm: Aedes aegypti; for pest or weed control at 20 ppm: 1 h, read-out: Knockdown; for mortality at 20 ppm: 48 h. On the procedure:
[…] Once the deposits were dry, five non-blood fed adult female Aedes aegypti (between two to five days old) were added to each well, and sustained with a 10% sucrose solution in a cotton wool plug. Assessment of the knockdown after 1 hour, and mortality after 48 hours was carried out.
(§1) In case of multiple tests, the mean value is reported.

Series [2] deals with Anopheles stephensi (Indian malaria mosquito). Kind of series: whole plant or invertebrate. The following applies: for pest or weed control at 20 ppm / mortality at 20 ppm: Anopheles stephensi; for pest or weed control at 20 ppm: 1 h, read-out: Knockdown; for mortality at 20 ppm: 48 h. As to the method:
[…] Once the deposits were dry, five non-blood fed adult female Anopheles stephensi (between two to five days old) were added to each well, and sustained with a 10% sucrose solution in a cotton wool plug. Assessment of the knockdown after 1 hour, and mortality after 48 hours was carried out.
as §1

For series [3], the system named is Aedes aegypti. Kind of series: whole plant or invertebrate. The following applies: for mortality at 5 ppm: Aedes aegypti, 48 h. On the procedure: (§2) The individual wells of six (6) well tissue culture plates were treated with 250 μl of an ethanol solution containing a test compound at a defined concentration. Once the deposits were dry, ten non-blood fed adult female Aedes aegypti or Anopheles stephensi (each between two to five day old) were added to each well, and sustained with a 10% sucrose solution in a cotton wool plug.
(§3) Assessment of the mortality was carried out at 48 hours.
(§4) Each treatment was replicated twice, with the mean mortality recorded.

For series [4], the system named is Anopheles stephensi. Kind of series: whole plant or invertebrate. The following applies: for mortality at 5 ppm: Anopheles stephensi, 48 h. As to the method: as §2, §3, §4
Series [5] concerns Aedes aegypti. Kind of series: Example B7: evaluation of insecticide impregnated polymer surfaces. Format: in vivo. As to conditions: AI content 2 wt %; for knock-down: after one hour; for mortality: 24 hours after exposure. The source says: (§5) Preparation of polymeric sheets: Certain methoxyacrylate were Impregnated into three polymers: LDPE (low density polyethylene), HDPE (high density polyethylene) and PP (polypropylene) in different concentrations by mixing the respective polymer with a compound at high temperatures and the resultant polymeric material were then mould into thin discs or plaques.
(§6) Twenty four hours prior to the relevant assessment intervals, three to five day old non-blood fed adult mosquitoes were taken from the culture and lightly anaesthetised with carbon dioxide. Ten females were selected and placed in a 250 ml plastic cup, retained with a net lid, provided with a 10% sucrose solution soaked in a cotton wool bung and held under culturing environmental conditions.
(§7) After twenty four hours, impregnated polymer sheets (measuring about 150 mm in diameter and about 0.1 mm in thickness) were removed from storage and wrapped around the glazed side of an 11 cm ceramic tile and held in place with an elastic band. A cup of the pre-selected mosquitoes were again lightly anaesthetised with carbon dioxide and transferred from the holding cup to the base of a 9 cm plastic Petri dish. The relevant impregnated polymer sheet was placed over the Petri dish and held in place with an elastic band. Once the mosquitoes had recovered from the anaesthetic, ca. 1 minute, the impregnated polymer sheet was placed on a holding rack, such that treated side was at an angle of […] to the horizontal.
(§8) After one hour an assessment of mosquito knockdown was made. A mosquito was said to be knocked down if it was unable to right itself once it had fallen over. The mosquitoes were lightly anaesthetised again, and removed from the Petri dish exposure chamber and returned to the holding cups. The mosquitoes were supplied with a 10% sucrose solution soaked in a cotton wool bung and held under culturing environmental conditions. An assessment of mortality was made 24 hours after exposure. A mosquito was said to be dead if it is unable to right itself once it had fallen over.

The subject of series [6] is Anopheles stephensi. Described as above. Format: in vivo. The following applies: AI content 2 wt %; for knock-down: after one hour; for mortality: 24 hours after exposure.
Excerpt: as §5, §6, §7, §8

Series [7] relates to An. Gambiae Kisumu sus. Kind of series: Example B5: bottle based cross resistance study (CDC bottle assay). The following applies: Anopheles gambiae, 24 h, Table B5b; 25 ppm; after 24 hours; Kisumu sus. Format: in vivo. As to the method:
(§9) Based on the “CDC bottle assay” (described at http://www.cdc.gov/malaria/resources/pdf/fsp/ir_manual/ir_cdc_bioassay_en.pdf) 1 ml of ethanol containing a test compound at a defined concentration was added to a 250 ml glass bottle and the bottles were placed on a rolling table to coat the inner surfaces as the solvent evaporated. Once dry, twenty five non-blood fed adult female mosquitoes of the appropriate species and strains (each three day old) were aspirated from the stock culture and gently blown into the exposure bottles. The lid of the bottle was replaced and the bottle placed upright out of direct sun light under standard culture conditions, nominally 28C and 60-80% relative humidity.
(§10) A stopwatch was started, and the assessment of the knock-down were made after 15 minutes and 60 minutes. A mosquito was said to be knocked down if it was unable to stand, following the CDC definition. The bottles were replaced in an upright position when not being assessed.
(§11) After one hour the mosquitoes were carefully removed from the bottle with an aspirator and placed in a recovery cup. The mosquitoes were supplied with a 10% sucrose solution on a cotton wool bung, and stored under culture conditions. Assessments of the mortality were made after 24 hours.
(§12) Each treatment was replicated a minimum of four times, with the mean knockdown or mortality recorded. In each study, a set of bottles was infested with a known insecticide susceptible strain of mosquitoes from the same genera as the resistant strains.

Series [8] has as its system FUMOZ. The description is as above. It is filed as in vivo. As to conditions: Anopheles funestus, 24 h, Table B5b; 25 ppm; after 24 hours; FUMOZ. On the procedure: as §9, §10, §11, §12
In series [9] the test system is VK7. The series is described as above. The following applies: Anopheles coluzzii, 24 h, Table B5b, after 24 hours. It is filed as in vivo. As to the method:
as §9, §10, §11, §12

[10] abbreviates: HDPE, polymer 8 to 12 weeks old.
[11] abbreviates: LDPE, polymer 8 to 12 weeks old.

Structures are written as SMILES.

The term mortality denotes the share of the test organisms that died. Low readings indicate a weak lethal effect, high ones a strong lethal effect. Consider `CO/C=C(/C(=O)OC)c1ccccc1Oc1ncnc(C(C)(C)C)n1` [Compound 5, Methyl (E)-2-[2-[(4-tert-butyl-1,3,5-triazin-2-yl)oxy]phenyl]-3-methoxy-prop-2-enoate], for which the pest or weed control at 20 ppm in [1] and in [2] was 100% each time. Moreover, the mortality at 20 ppm in series [1] and in [2] was 100% each time. The mortality at 5 ppm is 85% in series [3] and 100% in series [4]. Moreover, the knock-down was found to be 33% in series [5] (HDPE, polymer 2 to 4 weeks old); 60% in [5] (HDPE, polymer 6 to 8 weeks old); 13% in [5] (LDPE, polymer 2 to 4 weeks old); 85% in [5] (LDPE, polymer 6 to 8 weeks old); 80% in series [5] (PP, polymer 2 to 4 weeks old); 70% in series [5] (PP, polymer 6 to 8 weeks old). For the same molecule, the knock-down was determined as 100% in series [6] (HDPE, polymer 2 to 4 weeks old); 50% in [6] (setting [10]); 80% in series [6] (LDPE, polymer 2 to 4 weeks old); 70% in series [6] (setting [11]); 90% in [6] (PP, polymer 2 to 4 weeks old); 20% in series [6] (PP, polymer 8 to 12 weeks old).
`CO/C=C(/C(=O)OC)c1ccccc1Oc1cc(C(F)(F)F)ccn1` [Compound 8, Methyl (E)-2-[2-[[4-(trifluoromethyl)-2-pyridyl]oxy]phenyl]-3-methoxy-prop-2-enoate]: the pest or weed control at 20 ppm in [1] is 67%; in [2], 100%. Also, the mortality at 20 ppm in series [1] and in series [2] was 100% in each case. Further, the mortality at 5 ppm in series [3] and in series [4] was 100% in each case. In addition, the mortality at 25 ppm amounted to 61% in series [7], 56% in series [8] and 20% in [9]. Besides, the mortality is given as 53% in series [5] (HDPE, polymer 2 to 4 weeks old); 75% in series [5] (HDPE, polymer 6 to 8 weeks old); 100% in series [5] (LDPE, polymer 2 to 4 weeks old); 100% in series [5] (LDPE, polymer 6 to 8 weeks old); 100% in [6] (HDPE, polymer 2 to 4 weeks old); 80% in series [6] (setting [10]). Also, the mortality in series [6] (LDPE, polymer 2 to 4 weeks old) worked out at 100%; in series [6] (setting [11]), 100%. Further, the knock-down came to 100% in [5] (HDPE, polymer 2 to 4 weeks old); 100% in [5] (HDPE, polymer 6 to 8 weeks old); 100% in [5] (LDPE, polymer 2 to 4 weeks old); 100% in series [5] (LDPE, polymer 6 to 8 weeks old); 100% in series [6] (HDPE, polymer 2 to 4 weeks old); 100% in series [6] (setting [10]). The knock-down in series [6] (LDPE, polymer 2 to 4 weeks old) amounted to 100%; in series [6] (setting [11]), 90%.
`CO/C=C(/C(=O)OC)c1ccccc1CO/N=C(\C)C(C)C` [Compound 12]: the pest or weed control at 20 ppm in [1] and in [2] was 100% in each case. The mortality at 20 ppm in [1] and in series [2] was 100% each time. Also, the mortality at 5 ppm is 43% in series [3] and 100% in series [4]. Also, the knock-down in series [5] (HDPE, polymer 2 to 4 weeks old) is recorded as 97%; in [5] (HDPE, polymer 6 to 8 weeks old), 100%; in series [5] (LDPE, polymer 2 to 4 weeks old), 100%; in series [5] (LDPE, polymer 6 to 8 weeks old) it was 95%; in series [5] (PP, polymer 2 to 4 weeks old) it was 100%; in [5] (PP, polymer 6 to 8 weeks old), 100%. Also, the knock-down in series [6] (HDPE, polymer 2 to 4 weeks old) was 100%; in [6] (setting [10]), 100%; in [6] (LDPE, polymer 2 to 4 weeks old), 100%; in [6] (setting [11]) it was 30%; in [6] (PP, polymer 2 to 4 weeks old), 100%; in series [6] (PP, polymer 8 to 12 weeks old) it was 100%.
As for `CO/C=C(/C(=O)OC)c1ccccc1Oc1cc(C(F)(F)C(F)(F)F)ncn1` [Compound 17], the pest or weed control at 20 ppm in [1] and in series [2] was 100% each time. The mortality at 20 ppm in series [1] and in series [2] was 100% each time. In addition, the values for the mortality at 5 ppm in series [3] and in series [4] were 5% and 55%, respectively. In series [5] (LDPE, polymer 4 to 6 weeks old), this molecule had a knock-down of 100%.
Take `CO/C=C(/C(=O)OC)c1ccccc1COc1nccnc1C(F)(F)F` [Compound 20, Methyl (E)-3-methoxy-2-[2-[[3-(trifluoromethyl)pyrazin-2-yl]oxymethyl]phenyl]prop-2-enoate]: the pest or weed control at 20 ppm in [1] and in [2] was 100% each time. The mortality at 20 ppm in series [1] and in [2] was 100% in each case. The mortality at 5 ppm worked out at 70% in series [3] and 100% in [4].
For `CO/C=C(/C(=O)OC)c1ccccc1COc1ncc(C(F)(F)F)cc1C(F)(F)F` [Compound 21], the pest or weed control at 20 ppm in series [1] was 50%; in series [2], 100%. Also, the mortality at 20 ppm in series [1] came to 90%; in series [2] it was 100%. The mortality at 5 ppm amounted to 85% in [3] and 100% in series [4].
Regarding `CO/C=C(/C(=O)OC)c1ccccc1COc1nc(F)c(F)cc1F` [Compound 23], the pest or weed control at 20 ppm in series [1] came to 100%; in series [2] it was 20%. The mortality at 20 ppm in series [1] and in series [2] was 100% each time. Further, the mortality at 5 ppm amounted to 60% in series [3] and 93% in series [4].
In the case of `Clc1ccc(C(c2ccc(Cl)cc2)C(Cl)(Cl)Cl)cc1` [DDT, reference compound], the Knockdown in [1] (10 ppm, after 1 hour) is reported as 35%; in [2] (10 ppm, after 1 hour), 70%. Also, the mortality in series [1] (10 ppm, after 48 hours) came out at 90%; in series [2] (10 ppm, after 48 hours) it was 80%; in series [3] (5 ppm, at 48 hours), 85%; in [4] (5 ppm, at 48 hours), 59%.
For the molecule `CO/C=C(/C(=O)OC)c1ccccc1COc1ncccc1Cl` [F, reference compound], the pest or weed control at 20 ppm in series [1] was determined as 0%; in series [2], 60%. Further, the results for the mortality at 20 ppm in series [1] and in [2] were 60% and 100%, respectively. Further, the mortality at 5 ppm is 30% in [3] and 20% in series [4].
